Measured values: patent US10413541B2, “Oxabicycloheptanes and oxabicycloheptenes for the treatment of depressive and stress disorders” (LIXTE BIOTECHNOLOGY, INC., priority 2015, dated 2019)
Where two headings read alike, the source gives them in different places.

How the values were obtained:
[1] = tested on: GABAB-GIRK currents in LHb neurons; format: cell-based, mice; conditions: LB100 0.1 μM in the bath; for I-baclofen current: mean±s.e.m.
[2] = tested on: GIRK channels; test: GTPγS-induced Ba2+-sensitive outward current (I-GTPγS) in LHb neurons of brain slices; format: cell-based, mice; conditions: LB100 in the bath; for Ba2+ sensitive I-GTPγS current: GTPγS 100 μM internal
Protocol: Animals were anesthetized with Ketamine/Xylazine (50 mg/10 mg Kg-1 i.p.; Sigma-Aldrich, France). The preparation of LHb-containing brain slices was done in bubbled ice-cold 95% O2/5% CO2-equilibrated solution containing (in mM): cholineCl 110; glucose 25; NaHCO3 25; MgCl2 7; ascorbic acid 11.6; Na+-pyruvate 3.1; KCl 2.5; NaH2PO4 1.25; CaCl2 0.5. Sagittal slices (250 μm) were stored at room temperature in 95% O2/5% CO2-equilibrated artificial cerebrospinal fluid (ACSF) containing (in mM): NaCl 124; NaHCO3 26.2; glucose 11; KCl 2.5; CaCl2 2.5; MgCl2 1.3; NaH2PO4 1. Recordings (flow rate of 2.5 ml/min) were made under an Olympus-BX51 microscope (Olympus, France) at 32° C. Currents were amplified, filtered at 5 kHz and digitized at 20 kHz. Access resistance was monitored by a step of −4 mV (0.1 Hz). Experiments were discarded if the access resistance increased more than 20%.
(§1) Cell-attached recordings in ACSF were performed in GΩ seal with a Vc=0 and Hc=0. Whole-cell voltage clamp recordings were achieved to measure GABAB-GIR currents in presence of Bicuculine (10 μM), NBQX (20 μM) and AP5 (50 μM). […] GABAB-GIRK currents were confirmed by antagonism with either 10 μM of CGP54626, a specific GABAB antagonist or 1 mM Ba^2, a selective inhibitor of inward rectifiers. For the GTPγS experiment, 100 μM of GTPγS was added to the internal solution in place of Na3GTP.

[3] = tested on: GABAB-GIRK currents in LHb neurons; test: In vivo LB100 treatment after foot-shock exposure (FsE), I-baclofen recorded in LHb slices; design: species or system mice; conditions: for FsE-induced decrease in I-baclofen (CTRL vs FsE): 7 days after FsE; for FsE-induced I-baclofen attenuation (CTRL vs FsE): one day after FsE
Protocol: (§2) The inescapable shock procedure was previously described in Stamatakis and Stuber 2012. Briefly, we placed mice into standard mouse behavioral chambers (Imetronics) equipped with a metal grid floor. We let them to habituate at the new environment for 5 m. In a 20 m session animals received either 19 or 0 unpredictable foot shocks (1 mA, 500 ms) with an interstimulus interval of 30, 60 or 90 s. We anesthetized mice for patch-clamp electrophysiology 1 h, 24 h, 7 d, 14 d or 30 d after the session ended.
as §1
(§3) For LB treatment experiments, mice were injected with LB (1.5 mg/Kg i.p.) or saline 6-8 hours after the FsE. The effects of the treatment on the LHb excitability and GABAB-GIRKs currents as well as the behavioural assay were assessed at day 1 or 7. For both electrophysiology and behaviour once treated the animal were housed in groups of 4-6 and let undisturbed until the day of the test.

[4] = tested on: C57Bl/6J mice; test: Re-exposure to the context test (freezing) after FsE; format: in vivo; conditions: LB100 ip 6-8 h after FsE; one day after FsE
Protocol: as §2, §3
For this experiment mice were re-exposed 24 h after to the chamber where they received (or not) shocks for a total duration of 5 m. […] The behavior was scored according to a 5-sec instantaneous time-sampling procedure every 25 sec (Fanselow and Bolles 1979). The observer scored the animal as freezing, scanning or active at that instant and then proceeded to the next chamber. […] Thus each animal was scored […], yielding 10 observations for each mouse for total 5 minutes session. […]

[5] = tested on: C57Bl/6J mice; test: Forced swim test after FsE; format: in vivo; conditions: for FsE-driven impairment in the forced swim test (depressive-like phenotype): LB100 ip 6-8 h after FsE, 7 days after FsE
Protocol: as §2, §3
Forced swim test was conducted under normal light condition as previously described (Meye, Valentinova, Lecca et al 2015). Mice were placed in a cylinder of water (temperature 23-25° C.; 14 cm in diameter, 27 cm in height for mice) for six min. The depth of water was set to prevent animals from touching the bottom with their hind limbs. Animal behavior was videotracked from the top (Viewpoint, France). The latency to the first immobility event and the immobility time of each animal spent during the test was counted online by two independent observer blind of the animal treatments. Immobility was defined as floating or remaining motionless, which means absence of all movement except motions required to maintain the head above the water.

[6] = biological target: PP2A (Homo sapiens, UniProt P67775); conditions: cited from earlier work
PP2A, sequence (P67775 whole entry): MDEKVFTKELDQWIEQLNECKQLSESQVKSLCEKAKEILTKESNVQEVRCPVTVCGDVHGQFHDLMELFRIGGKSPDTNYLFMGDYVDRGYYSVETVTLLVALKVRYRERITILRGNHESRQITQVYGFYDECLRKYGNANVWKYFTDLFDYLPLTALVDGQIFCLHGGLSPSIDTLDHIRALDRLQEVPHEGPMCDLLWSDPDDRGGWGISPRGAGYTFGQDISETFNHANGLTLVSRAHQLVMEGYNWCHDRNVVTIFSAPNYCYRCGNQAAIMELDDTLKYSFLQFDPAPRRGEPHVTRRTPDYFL
PP2A, sequence (P30153 whole entry partner): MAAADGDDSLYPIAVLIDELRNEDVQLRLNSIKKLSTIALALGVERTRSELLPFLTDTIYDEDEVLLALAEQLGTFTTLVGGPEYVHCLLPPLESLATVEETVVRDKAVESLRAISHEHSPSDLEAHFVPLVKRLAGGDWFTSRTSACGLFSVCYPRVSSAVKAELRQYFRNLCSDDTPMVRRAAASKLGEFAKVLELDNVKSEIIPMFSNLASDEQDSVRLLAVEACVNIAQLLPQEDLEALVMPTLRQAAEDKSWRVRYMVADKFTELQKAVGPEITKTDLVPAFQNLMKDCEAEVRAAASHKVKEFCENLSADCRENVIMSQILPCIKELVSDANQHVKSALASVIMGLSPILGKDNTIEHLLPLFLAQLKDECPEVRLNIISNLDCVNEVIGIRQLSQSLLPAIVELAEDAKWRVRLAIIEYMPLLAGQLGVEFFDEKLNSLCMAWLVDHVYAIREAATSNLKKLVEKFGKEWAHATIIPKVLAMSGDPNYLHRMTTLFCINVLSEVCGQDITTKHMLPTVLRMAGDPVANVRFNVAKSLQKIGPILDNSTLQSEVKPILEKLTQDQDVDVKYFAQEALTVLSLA

[7] = tested on: cancer cells; conditions: cited from earlier work; for Anti-cancer activity when used alone: mouse model systems (Lu et al. 2009a)
[8] = LB100 1.5 mg/kg ip 6-8 h after FsE, 1.5 mg/kg
[9] = LB100 1.5 mg/kg ip 6-8 h after FsE, listed as LB-100, 1.5 mg/kg
[10] = LB-100 ip 6-8 h after FsE, FST 7 days after FsE

With `CN1CCN(C(=O)C2C(C(=O)O)[C@H]3CC[C@@H]2O3)CC1` (stereo partly shown) [LB100] the “FsE-induced inhibition of GABAB-GIRK currents (I-baclofen CTRL vs FsE)” value [1] was “sufficient to rescue”, the I-baclofen current ([1]; slices from CTRL mice) was 88.41±18.64 pA and the I-baclofen current ([1]; slices from FsE mice) was 85.09±0.67 pA. The “FsE-induced inhibition of GABAB-GIRK currents (I-baclofen CTRL vs FsE)” value ([1]; listed as LB-100) was “comparable”, the “Ba2+ sensitive I-GTPγS in FsE animals vs CTRL” value [2] was “restored” and the “Ba2+ sensitive I-GTPγS current” value ([2]; CTRL mice) was 94.27±13.29 pA. The “Ba2+ sensitive I-GTPγS current” value ([2]; FsE mice) was 110.6±20.79 pA, the “Ba2+ sensitive I-GTPγS in FsE animals vs CTRL” value ([2]; listed as LB-100) was “comparable to the control group” and the I-baclofen current ([3]; LB100 1.5 mg/kg ip 6-8 h after FsE protocol, recorded one day after, CTRL mice) was 93.88±18.37 pA. For the same molecule, the “FsE-induced decrease in I-baclofen (CTRL vs FsE)” value [3, 8] was “able to revert”, the “FsE-induced decrease in I-baclofen (CTRL vs FsE)” value [3, 9] was “comparable” and the “FsE-induced I-baclofen attenuation (CTRL vs FsE)” value [3, 8] was “not present”. For the same molecule, the “FsE-induced I-baclofen attenuation (CTRL vs FsE)” value [3, 9] was “comparable”, the I-baclofen current ([3]; LB100 1.5 mg/kg ip 6-8 h after FsE, recorded one day after, FsE mice) was 97.00±18.05 pA and the I-baclofen current ([3]; single injection of LB100 6-8 hours after the shock protocol, recorded 7 days later, CTRL mice) was 95.54±30.00 pA. The I-baclofen current ([3]; single injection of LB100 6-8 hours after the shock, recorded 7 days later, FsE mice) was 92.97±14.84 pA, the “Freezing score in the re-exposure to the context test” value [4] was “did not affect” and the “FsE-driven impairment in the forced swim test (depressive-like phenotype)” value [5] was “sufficient to rescue the impairment”. For the same molecule, the “FsE-driven impairment in the forced swim test (depressive-like phenotype)” value ([5]; listed as LB-100) was “behavioral normalization”, the “Latency to the first immobility, control vs FsE group” value [5, 10] was “comparable” and the “Total immobility, control vs FsE group” value [5, 10] was “comparable”. For the same molecule, the “Duration of inhibition of PP2A activity” value ([6]; 1.5 mg/Kg (Lu et al., 2009b)) was “about 12 hours”, the “Time of peak of PP2A-inhibiting activity” value ([6]; 1.5 mg/Kg (Lu et al., 2009b)) was ~8 h and the PP2A inhibition ([6]; in vitro in human cancer cells and in xenografts of human tumor cells in mice when given parenterally) was “inhibitor of PP2A”. The “Toxicity in combination with standard cytotoxic anti-cancer drugs” value ([7]; in vivo) was “without observable increase in toxicity”, the “Anti-cancer activity when used alone” value [7] was “has anti-cancer activity” and the “Anti-cancer activity when used alone” value ([7]; listed as LB-100) was “inhibits the growth of cancer cells”. For the same molecule, the “Potentiation in vivo of anti-tumor activity of standard cytotoxic anti-cancer drugs” value ([7]; with temozolomide, doxorubicin, docetaxel) was “significantly potentiates”.
